Source: PMC9101373, “Design of DNA Intercalators Based on 4-Carboranyl-1,8-Naphthalimides: Investigation of Their DNA-Binding Ability and Anticancer Activity” (International Journal of Molecular Sciences, 2022)
Where “and” joins values, the source holds several entries; their conditions need not be identical. Equal entries are not always repeated.

Legend:
[1] = system: calf thymus DNA (ct-DNA); experiment: Melting temperature (Tm) measurements of ct-DNA, thermal denaturation; format: binding; conditions: r = [compound]/[ct-DNA] = 0.3; pH 7.0, 20 mM cacodylate buffer; Tm of ct-DNA alone 74 °C
Protocol: The melting temperature (Tm) of DNA is defined as the temperature at which 50% of the DNA is in form of single strands forming randomly coiled structures. DNA melting is measured by the absorbance of UV light (260 nm) by the DNA solution, where the amount of UV light absorbed is proportional to the fraction of non-bonded base pairs. The majority of DNA-binding small molecules known thus far stabilize duplex DNA against heat denaturation. A high, drug-induced increase in the Tm of DNA is generally viewed as an excellent criterion to select DNA ligands and is a common feature of several anticancer drugs such as intercalators (a significant increase in Tm = 3–8 °C is observed for strong intercalation) and alkylators. The reverse situation (destabilization of DNA to facilitate its denaturation) may be an attractive option to identify therapeutic agents acting on the DNA structure.
Our study conducted Tm measurement to estimate the impact of 1,8-naphthalimides bearing the carborane cluster on DNA stabilization (Table 1, Figures S249–S253, ESI).
The measurements were performed by adding aliquots of DMSO stock solution of the tested compounds to the buffer solution (pH 7.0, 20 mM, cacodylate buffer, DMSO content of the final solution = 0.24–0.36%). The Tm curves were collected at r = 0.3 (r = [compound]/[ct-DNA]) to assure the dominant binding mode. Thermal melting curves were determined by following the absorption change at 260 nm as a function of temperature by using a GBC Cintra10 UV–vis spectrometer (Dandenong, Australia) equipped with a GBC Thermocell Peltier Power Supply (Dandenong, Australia) using a 1 cm path length cell. The absorbance of the samples was monitored at 260 nm from 30 to 90 °C (95 °C for compounds 54–61) with a heating rate of 1 °C/min. Tm values are the midpoints or the transition curves determined from the maximum of the first derivative. The ΔTm values were calculated by subtracting the Tm of the free nucleic acid from the Tm of the sample. Every Tm value reported in this study was average at least three measurements. The error in Tm was 0.5 °C.

[2] = system: HepG2 cells; experiment: Analysis of 8-oxo-dG in cellular DNA by HPLC-UV-ED; format: cell-based, human; conditions: HepG2, 24 h; for [8-oxo-dG ± SD] × 10^6, 8-oxo-dG level in cellular DNA: concentration corresponding to total IC50, control 2.88 ± 0.17
Protocol: We also estimated 8-oxo-dG levels in DNA since 2-deoxyguanosine is most susceptible to oxidation among nucleosides and might serve as an oxidative DNA damage marker within the cells. […] Both compounds generate much higher oxidative disturbance in DNA than mitonafide, resulting in approximately 4- and 6-fold more 8-oxo-dG residues, respectively.
HepG2 cells (1 × 10^6) were seeded onto flasks (25 cm^2) and cultured for 16 h in the EMEM medium (Corning®) supplemented with 10% FBS (Corning®) and antibiotics (Sigma).Subsequently, the cells were treated for 24 h with the tested compounds at a concentration corresponding to their total IC50 values. Next, the cells were trypsinized, rinsed twice with PBS, and pelleted by centrifugation (200× g, 3 min). Total DNA was isolated from the treated cells and untreated control cells using a Genomic mini DNA isolation kit (A&A Biotechnology, Gdynia, Poland) according to the manufacturer′s protocol. The quality of the total DNA was assessed spectrophotometrically.
DNA (1 μg) was dissolved in sodium acetate buffer (10 μL, 40 mM, pH 5.3) containing ZnCl2 (0.1 mM) and digested with nuclease P1 (3 μg). Samples were incubated for 3 h at 37 °C. Subsequently, Tris–HCl (2 μL, 1 M, pH 8.0), alkaline phosphatase (1 U) were added and incubated for 2 h at 37 °C. All DNA hydrolysates were ultrafiltered using cut-off 10,000 Da filter units.
8-Oxo-dG and dG in hydrolysates were determined using HPLC-UV followed by electrochemical detection and ED (Coulochem III Electrochemical Detector, ESA, Inc., Chelmsford, MA, USA). DNA hydrolysates were chromatographed isocratically using ammonium acetate (50 mM pH 5.3)/methanol (93:7, v/v). Detection of dG was performed at 254 nm. Detection of 8-oxo-dG was performed by the electrochemical detector: guard cell + 400 mV, detector 1: +130 mV (as a screening electrode), detector 2: + 350 mV (as a measuring electrode set to sensitivity of 500 nA/V). All results are expressed as the mean ± SD.
To determine 8-oxo-dG levels, guanosine amount was necessary. The total number of 8-oxo-dG residues in the genome was calculated using the unique formula [54].

Substance	ΔTm ct-DNA [1] [°C]	[8-oxo-dG ± SD] × 10^6, 8-oxo-dG level in cellular DNA [2] [per 10^6 dG]	fold increase in number of 8-oxo-dG residues per 10^6 dG as compared to control [2]	fold more 8-oxo-dG residues than mitonafide [2]
N-[2-(Pyrrolidin-1-yl)ethyl]-4-[(2-(2-(1,7-dicarba-closo-dodecaborane-1-yl)-ethylamino)ethyl)amino]-1,8-naphthalimide [Compound 57]	11.00	57.54 ± 0.73		
N-[2-(Dimethylamino)ethyl]-4-[(2-(2-(1,7-dicarba-closo-dodecaborane-1-yl)-ethylamino)ethyl)amino]-1,8-naphthalimide [Compound 55]	9.67	74.85 ± 1.38		
N-[2-(Dimethylamino)ethyl]-4-[(6-(2-(1,2-dicarba-closo-dodecaborane-1-yl)-ethylamino)hexyl)amino]-1,8-naphthalimide [Compound 58]	11.00	96.58 ± 0.56		
N-[2-(Pyrrolidin-1-yl)ethyl]-4-[(2-(2-(1,2-dicarba-closo-dodecaborane-1-yl)-ethylamino)ethyl)amino]-1,8-naphthalimide [Compound 56]	7.67	52.31 ± 0.51		
N-[2-(Dimethylamino)ethyl]-4-[(6-(2-(1,7-dicarba-closo-dodecaborane-1-yl)-ethylamino)hexyl)amino]-1,8-naphthalimide [Compound 59]	8.33	81.64 ± 0.67		
N-[2-N-Pyrrolidinyl)ethyl]-4-[(6-(2-(1,2-dicarba-closo-dodecaborane-1-yl)-ethylamino)hexyl)amino]-1,8-naphthalimide [Compound 60]	7.67	164.35 ± 6.39	over 57 fold	approximately 4 fold
N-[2-N-Pyrrolidinyl)ethyl]-4-[(6-(2-(1,7-dicarba-closo-dodecaborane-1-yl)-ethylamino)hexyl)amino]-1,8-naphthalimide [Compound 61]	12.33	123.92 ± 2.59	> 43 fold	4 fold and ~6 fold
N-[2-(Dimethylamino)ethyl]-4-[(2-(2-(1,2-dicarba-closo-dodecaborane-1-yl)-ethylamino)ethyl)amino]-1,8-naphthalimide [Compound 54]	7.67	43.17 ± 0.75		
